According to PubChem BioAssay (NCI):
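Results reflect a 48-hour exposure of cells in 96-well plates to compound at five concentrations. At the TGI there is no net growth.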

Assays:
Test in all cases: inhibition of tumour cell growth, NCI panel, 48 h
[1] = tested on: SK-MEL-28 melanoma
[2] = tested on: K-562 leukemia
[3] = tested on: A498 renal
[4] = tested on: RPMI-8226 leukemia
[5] = tested on: SK-MEL-2 melanoma
[6] = tested on: COLO 205 colon
[7] = tested on: HS 578T breast
[8] = tested on: MDA-MB-435
[9] = tested on: SNB-19 CNS
[10] = tested on: SNB-75 CNS
[11] = tested on: HCT-116 colon
[12] = tested on: NCI-H226 lung
[13] = tested on: DU-145 prostate
[14] = tested on: SW-620 colon
[15] = tested on: PC-3 prostate
[16] = tested on: CAKI-1 renal
[17] = tested on: HT29 colon
[18] = tested on: UACC-257 melanoma
[19] = tested on: A549 NSCLC
[20] = tested on: SK-OV-3 ovarian
[21] = tested on: OVCAR-5 ovarian
[22] = tested on: SF-268 CNS
[23] = tested on: UO-31 renal
[24] = tested on: BT-549 breast
[25] = tested on: SN12C renal
[26] = tested on: NCI-H522 lung
[27] = tested on: SF-295 CNS
[28] = tested on: NCI-H460 lung
[29] = tested on: LOX IMVI melanoma
[30] = tested on: HCT-15 colon
[31] = tested on: 786-0 renal
[32] = tested on: OVCAR-8 ovarian
[33] = tested on: OVCAR-3 ovarian
[34] = tested on: T-47D breast
[35] = tested on: UACC-62 melanoma
[36] = tested on: HCC-2998 colon
[37] = tested on: SF-539 CNS
[38] = tested on: RXF 393 renal
[39] = tested on: HOP-62 NSCLC
[40] = tested on: ACHN renal
[41] = tested on: MCF7 breast
[42] = tested on: SK-MEL-5 melanoma
[43] = tested on: MDA-MB-231 breast
[44] = tested on: MOLT-4 leukemia
[45] = tested on: CCRF-CEM leukemia
[46] = tested on: NCI/ADR-RES ovarian
[47] = tested on: HL-60(TB) leukemia
[48] = tested on: MALME-3M melanoma
[49] = tested on: U251 CNS
[50] = tested on: NCI-H23 lung
[51] = tested on: TK-10 renal
[52] = tested on: HOP-92 NSCLC
[53] = tested on: EKVX NSCLC
[54] = tested on: SR leukemia
[55] = tested on: KM12 colon
[56] = tested on: IGROV1 ovarian
[57] = tested on: OVCAR-4 ovarian
[58] = tested on: M14 melanoma
[59] = tested on: MDA-N

`C[C@H]1[C@H](C)N1CC(O)Cn1ccnc1[N+](=O)[O-]` (some centres not stated) was tested, and the TGI [1] was over 100 µM, the TGI [2] was over 100 µM and the TGI [3] was over 100 µM. For the same compound, the TGI [4] was over 100 µM, the TGI [5] was over 100 µM and the TGI [6] was over 100 µM. The TGI [7] was over 100 µM, the TGI [8] was over 100 µM and the TGI [9] was over 100 µM. The TGI [10] was over 100 µM, the TGI [11] was over 100 µM and the TGI [12] was over 100 µM. It also gave a TGI [13] of over 100 µM, a TGI [14] of over 100 µM and a TGI [15] of over 100 µM. For the same compound, the TGI [16] was over 100 µM, the TGI [17] was over 100 µM and the TGI [18] was over 100 µM. For the same compound, the TGI [19] was over 100 µM, the TGI [20] was over 100 µM and the TGI [21] was over 100 µM. It also gave a TGI [22] of over 100 µM, a TGI [23] of over 100 µM and a TGI [24] of over 100 µM. The TGI [25] was over 100 µM, the TGI [26] was over 100 µM and the TGI [27] was over 100 µM. It also gave a TGI [28] of over 100 µM, a TGI [29] of over 100 µM and a TGI [30] of over 100 µM. For the same compound, the TGI [31] was over 100 µM, the TGI [32] was over 100 µM and the TGI [33] was over 100 µM. For the same compound, the TGI [34] was over 100 µM, the TGI [35] was over 100 µM and the TGI [36] was over 100 µM. It also gave a TGI [37] of over 100 µM, a TGI [38] of over 100 µM and a TGI [39] of over 100 µM. It also gave a TGI [40] of over 100 µM, a TGI [41] of over 100 µM and a TGI [42] of over 100 µM. The TGI [43] was over 100 µM, the TGI [44] was over 100 µM and the TGI [45] was over 100 µM. The TGI [46] was over 100 µM, the TGI [47] was over 100 µM and the TGI [48] was over 100 µM. It also gave a TGI [49] of over 100 µM, a TGI [50] of over 100 µM and a TGI [51] of over 100 µM. The TGI [52] was over 100 µM, the TGI [53] was over 100 µM and the TGI [54] was over 100 µM. For the same compound, the TGI [55] was over 100 µM, the TGI [56] was over 100 µM and the TGI [57] was over 100 µM. The TGI [58] was over 100 µM and the TGI [59] was over 100 µM.

`O=C(Nc1sccc1S(=O)(=O)c1ccc(Cl)cc1)c1ccc(F)cc1F` gave a TGI [1] of over 100 µM, a TGI [2] of 38.6 µM and a TGI [3] of 51.5 µM. For the same compound, the TGI [4] was over 100 µM, the TGI [5] was 39.5 µM and the TGI [6] was over 100 µM. The TGI [7] was 80.5 µM, the TGI [8] was over 100 µM and the TGI [9] was 48.8 µM. The TGI [10] was 38.8 µM, the TGI [11] was over 100 µM and the TGI [12] was over 100 µM. It also gave a TGI [13] of over 100 µM, a TGI [14] of over 100 µM and a TGI [15] of over 100 µM. The TGI [16] was 65.9 µM, the TGI [17] was over 100 µM and the TGI [18] was over 100 µM. It also gave a TGI [19] of over 100 µM, a TGI [20] of 53.4 µM and a TGI [21] of 81.3 µM. For the same compound, the TGI [22] was 42.7 µM, the TGI [23] was 47.7 µM and the TGI [24] was 46.8 µM. It also gave a TGI [25] of over 100 µM, a TGI [26] of 51.9 µM and a TGI [27] of 65.3 µM. For the same compound, the TGI [29] was over 100 µM, the TGI [30] was over 100 µM and the TGI [31] was 36.5 µM. For the same compound, the TGI [32] was over 100 µM, the TGI [33] was over 100 µM and the TGI [34] was over 100 µM. The TGI [35] was 86.8 µM, the TGI [36] was over 100 µM and the TGI [37] was 30.5 µM. For the same compound, the TGI [38] was 46.2 µM, the TGI [39] was 80.1 µM and the TGI [40] was over 100 µM. The TGI [41] was over 100 µM, the TGI [42] was over 100 µM and the TGI [43] was 54 µM. It also gave a TGI [44] of 56.7 µM, a TGI [45] of 37.8 µM and a TGI [46] of over 100 µM. It also gave a TGI [47] of over 100 µM, a TGI [48] of 96.4 µM and a TGI [49] of 45 µM. The TGI [50] was 54.9 µM, the TGI [51] was 42.7 µM and the TGI [52] was 42.5 µM. It also gave a TGI [53] of 43.5 µM, a TGI [54] of 40.9 µM and a TGI [55] of over 100 µM. For the same compound, the TGI [56] was over 100 µM, the TGI [57] was 53.9 µM and the TGI [58] was over 100 µM. For the same compound, the TGI [59] was over 100 µM.
